Reference: ChEMBL document CHEMBL3751778, “Synthesis and biological evaluation of novel 7-O-lipophilic substituted baicalein derivatives as potential anticancer agents” (Medchemcomm, 2015)
Activity calls are given as the source filed them. The calls are words filed in the database; no cut-off is given here.

Columns and labels:
[1] = Antioxidant activity assessed as DPPH radical scavenging activity after 30 mins by ELISA reader analysis; format: physicochemical
[2] = Antioxidant activity assessed as ABTS radical scavenging activity after 6 mins by photometric analysis; format: physicochemical
[3] = Cytotoxicity against mouse BNL-CL2 cells after 48 hrs by MTT assay; format: cell-based; settings: BNL CL.2, 48 h
[4] = Antiproliferative activity against human DLD1 cells after 48 hrs by MTT assay; format: functional, cell-based; settings: DLD-1, 48 h
HepG2 = experiment: cells; settings: Homo sapiens, HepG2, 48 h
SW480 [5] = experiment: Antiproliferative activity against human SW480 cells after 48 hrs by MTT assay; format: functional, cell-based; settings: SW480, 48 h
HT-29 [6] = experiment: cells; settings: Homo sapiens, HT-29, 48 h
Description: Antiproliferative activity against human HT-29 cells after 48 hrs by MTT assay

SW480 [7] = experiment: Induction of apoptosis in human SW480 cells assessed as early apoptotic cells after 48 hrs by annexin V-FITC/propidium iodide staining-based flow cytometric analysis; format: functional, cell-based
SW480 [8] = experiment: Cell cycle arrest in human SW480 cells assessed as accumulation at G1 phase at 10 uM after 48 hrs by propidium iodide staining-based flow cytometric analysis (reference value: 65.24%); format: functional
SW480 [9] = experiment: Antiproliferative activity against human SW480 cells after 24 hrs by MTT assay; format: functional, cell-based; settings: SW480, 24 h
SW480 [10] = experiment: Cell cycle arrest in human SW480 cells assessed as accumulation at S phase at 5 uM after 48 hrs by propidium iodide staining-based flow cytometric analysis (reference value: 26.19%); format: functional
[11] = Antiproliferative activity against human DLD1 cells after 72 hrs by MTT assay; format: functional, cell-based; settings: DLD-1, 72 h
HT-29 [12] = experiment: Antiproliferative activity against human HT-29 cells after 24 hrs by MTT assay; format: functional, cell-based; settings: HT-29, 24 h
SW480 [13] = experiment: Cell cycle arrest in human SW480 cells assessed as accumulation at G1 phase at 20 uM after 48 hrs by propidium iodide staining-based flow cytometric analysis (reference value: 65.24%); format: functional
HT-29 [14] = experiment: Antiproliferative activity against human HT-29 cells after 72 hrs by MTT assay; format: functional, cell-based; settings: HT-29, 72 h
[15] = Cytotoxicity against mouse BNL-CL2 cells assessed as induction of cell death at 20 uM after 48 hrs by MTT assay; format: cell-based; settings: bnl-cl2, 48 h
SW480 [16] = experiment: Induction of ROS generation in human SW480 cells assessed as superoxide anion level at 10 uM after 48 hrs by DHE staining-based fluorescence assay (reference value: 101.21 No_Unit); format: functional
SW480 [17] = experiment: Cell cycle arrest in human SW480 cells assessed as accumulation at G1 phase at 5 uM after 48 hrs by propidium iodide staining-based flow cytometric analysis (reference value: 65.24%); format: functional
SW480 [18] = experiment: Induction of apoptosis in human SW480 cells assessed as chromatin condensation at 20 uM after 48 hrs by Hoechst 33258 staining-based fluorescence microscopic analysis; format: functional, cell-based
SW480 [19] = experiment: Induction of ROS generation in human SW480 cells after 48 hrs by DHE staining-based fluorescence assay; format: functional, cell-based
SW480 [20] = experiment: Cell cycle arrest in human SW480 cells assessed as accumulation at G2/M phase at 20 uM after 48 hrs by propidium iodide staining-based flow cytometric analysis (reference value: 8.57%); format: functional
SW480 [21] = experiment: Induction of apoptosis in human SW480 cells assessed as nuclear shrinkage at 20 uM after 48 hrs by Hoechst 33258 staining-based fluorescence microscopic analysis; format: functional, cell-based
SW480 [22] = experiment: Induction of ROS generation in human SW480 cells assessed as superoxide anion level at 5 uM after 48 hrs by DHE staining-based fluorescence assay (reference value: 101.21); format: functional
SW480 [23] = experiment: Cell cycle arrest in human SW480 cells assessed as accumulation at S phase at 20 uM after 48 hrs by propidium iodide staining-based flow cytometric analysis (reference value: 26.19%); format: functional
SW480 [24] = experiment: Induction of apoptosis in human SW480 cells assessed as late apoptotic cells at 10 uM after 48 hrs by annexin V-FITC/propidium iodide staining-based flow cytometric analysis; format: functional, cell-based
SW480 [25] = experiment: Induction of ROS generation in human SW480 cells assessed as superoxide anion level at 20 uM after 48 hrs by DHE staining-based fluorescence assay (reference value: 101.21 No_Unit); format: functional
SW480 [26] = experiment: Induction of apoptosis in human SW480 cells assessed as early apoptotic cells at 10 uM after 48 hrs by annexin V-FITC/propidium iodide staining-based flow cytometric analysis; format: functional, cell-based
SW480 [27] = experiment: Antiproliferative activity against human SW480 cells after 72 hrs by MTT assay; format: functional, cell-based; settings: SW480, 72 h
SW480 [28] = experiment: Cell cycle arrest in human SW480 cells assessed as accumulation at G2/M phase at 5 uM after 48 hrs by propidium iodide staining-based flow cytometric analysis (reference value: 8.57%); format: functional
SW480 [29] = experiment: Induction of apoptosis in human SW480 cells assessed as DNA fragmentation at 20 uM after 48 hrs by Hoechst 33258 staining-based fluorescence microscopic analysis; format: functional, cell-based
SW480 [30] = experiment: Cell cycle arrest in human SW480 cells assessed as accumulation at G2/M phase at 10 uM after 48 hrs by propidium iodide staining-based flow cytometric analysis (reference value: 8.57%); format: functional
SW480 [31] = experiment: Cell cycle arrest in human SW480 cells assessed as accumulation at S phase at 10 uM after 48 hrs by propidium iodide staining-based flow cytometric analysis (reference value: 26.19%); format: functional
[32] = Antiproliferative activity against human DLD1 cells after 24 hrs by MTT assay; format: functional, cell-based; settings: DLD-1, 24 h
SW480 [33] = experiment: Induction of apoptosis in human SW480 cells assessed as late apoptotic cells at 20 uM after 48 hrs by annexin V-FITC/propidium iodide staining-based flow cytometric analysis; format: functional, cell-based
SW480 [34] = experiment: Cell cycle arrest in human SW480 cells assessed as accumulation at S phase at 50 uM after 48 hrs by propidium iodide staining-based flow cytometric analysis; format: functional
SW480 [35] = experiment: Induction of apoptosis in human SW480 cells assessed as early apoptotic cells at 20 uM after 48 hrs by annexin V-FITC/propidium iodide staining-based flow cytometric analysis; format: functional, cell-based

Cc1c(C)c2c(c(C)c1O)CCC(C)(C(=O)O)O2 (stereo not drawn) [TROLOX]
IC50 [1]: 22.7 µM | IC50 [2]: 16.8 µM

O=c1cc(-c2ccccc2)oc2cc(O)cc(O)c12 [CHRYSIN]
IC50 [3]: > 40 µM | IC50 [4]: 18.6 µM | IC50 (HepG2): 16.5 µM | IC50 (SW480 [5]): 31.1 µM | IC50 (HT-29 [6]): 19.5 µM

CC(C)=CCC/C(C)=C/CC/C(C)=C/COc1cc2oc(-c3ccccc3)cc(=O)c2c(O)c1O
IC50 [3]: > 20 µM | Activity (SW480 [7]): Dose-dependent effect | Activity (SW480 [8]): 57.2% | IC50 (SW480 [9]): > 20 µM | Activity (SW480 [10]): 23.88% | IC50 [11]: 6.86 µM | IC50 (HT-29 [12]): > 20 µM | Activity (SW480 [13]): 43.3% | IC50 (HT-29 [14]): 15.4 µM | Activity [15]: < 20% | Flu intensity (SW480 [16]): 169.24 | Activity (SW480 [17]): 68.64% | IC50 [4]: 4.88 µM | Activity (SW480 [18]): Active | Activity (SW480 [19]): Dose-dependent effect | IC50 [1]: 24.6 µM | Activity (SW480 [20]): 6.64% | Activity (SW480 [21]): Active | Flu intensity (SW480 [22]): 102.13 | IC50 (HepG2): > 20 µM | Activity (SW480 [23]): 50% | Activity (SW480 [24]): Active | Flu intensity (SW480 [25]): 192.86 | IC50 (SW480 [5]): 1.15 µM | Activity (SW480 [26]): Active | IC50 (SW480 [27]): 1.26 µM | Activity (SW480 [28]): 7.47% | Activity (SW480 [29]): Active | Activity (SW480 [30]): 9.41% | IC50 (HT-29 [6]): 14.9 µM | Activity (SW480 [31]): 33.33% | IC50 [2]: 24 µM | IC50 [32]: 16.1 µM

COc1cc2oc(-c3ccccc3)cc(=O)c2c(O)c1O
IC50 [3]: > 40 µM | IC50 [4]: 30.9 µM | IC50 [1]: 28.4 µM | IC50 (HepG2): > 40 µM | IC50 (SW480 [5]): 29.4 µM | IC50 (HT-29 [6]): > 40 µM | IC50 [2]: 20.2 µM

CC(C)=CCC/C(C)=C/COc1cc2oc(-c3ccccc3)cc(=O)c2c(O)c1O
IC50 [3]: > 20 µM | IC50 [4]: 9.77 µM | IC50 [1]: 24.3 µM | IC50 (HepG2): > 20 µM | IC50 (SW480 [5]): 2.84 µM | IC50 (HT-29 [6]): 17 µM | IC50 [2]: 20.4 µM

CC(C)=CCC/C(C)=C/CC/C(C)=C/COc1cc(O)c2c(=O)cc(-c3ccccc3)oc2c1
IC50 [3]: > 20 µM | IC50 [4]: > 20 µM | IC50 (HepG2): > 20 µM | IC50 (SW480 [5]): > 20 µM | IC50 (HT-29 [6]): > 20 µM

CC(C)=CCC/C(C)=C/COc1cc(O)c2c(=O)cc(-c3ccccc3)oc2c1
IC50 [3]: > 20 µM | IC50 [4]: > 20 µM | IC50 (HepG2): > 20 µM | IC50 (SW480 [5]): > 20 µM | IC50 (HT-29 [6]): > 20 µM

COc1cccc2c1C(=O)c1c(O)c3c(c(O)c1C2=O)C[C@@](O)(C(=O)CO)C[C@@H]3O[C@H]1C[C@H](N)[C@H](O)[C@H](C)O1 [DOXORUBICIN]
IC50 (SW480 [5]): 0.53 µM

CC(C)=CCOc1cc2oc(-c3ccccc3)cc(=O)c2c(O)c1O
IC50 [3]: > 20 µM | IC50 [4]: > 20 µM | IC50 [1]: 24 µM | IC50 (HepG2): > 20 µM | IC50 (SW480 [5]): 8.6 µM | IC50 (HT-29 [6]): > 20 µM | IC50 [2]: 18.8 µM

O=C1O[C@H]([C@@H](O)CO)C(O)=C1O [ASCORBIC ACID]
IC50 [1]: 27.3 µM | IC50 [2]: 18.3 µM

COc1c(O)cc(O)c2c(=O)cc(-c3ccccc3)oc12 [WOGONIN]
IC50 [3]: > 40 µM | IC50 [4]: 36.9 µM | IC50 (HepG2): 37.9 µM | IC50 (SW480 [5]): 35.1 µM | IC50 (HT-29 [6]): 39.6 µM

COc1cc(O)c2c(=O)cc(-c3ccccc3)oc2c1 [TECHTOCHRYSIN]
IC50 [3]: > 20 µM | IC50 [4]: > 20 µM | IC50 (HepG2): > 20 µM | IC50 (SW480 [5]): > 20 µM | IC50 (HT-29 [6]): > 20 µM

O=c1cc(-c2ccccc2)oc2cc(O)c(O)c(O)c12 [BAICALEIN]
IC50 [3]: > 40 µM | Activity (SW480 [7]): inactive | Activity (SW480 [8]): 64.29% | IC50 (SW480 [9]): 16.9 µM | Activity (SW480 [10]): 28.61% | IC50 [11]: > 20 µM | IC50 (HT-29 [12]): > 20 µM | Activity (SW480 [13]): 64.54% | IC50 (HT-29 [14]): 18.4 µM | Flu intensity (SW480 [16]): 99.49 | Activity (SW480 [17]): 63.64% | IC50 [4]: 27.9 µM | Activity (SW480 [18]): Active | Activity (SW480 [33]): Active | Activity (SW480 [19]): Dose-dependent effect | IC50 [1]: 17.2 µM | Activity (SW480 [20]): 7.95% | Activity (SW480 [21]): Active | Flu intensity (SW480 [22]): 104.84 | Activity (SW480 [23]): 27.51% | Activity (SW480 [34]): Active | Flu intensity (SW480 [25]): 98.79 | IC50 (SW480 [5]): 14.1 µM | IC50 (SW480 [27]): 11.6 µM | Activity (SW480 [28]): 7.75% | Activity (SW480 [29]): Active | Activity (SW480 [30]): 7.05% | Activity (SW480 [35]): Active | IC50 (HT-29 [6]): 18.1 µM | Activity (SW480 [31]): 28.65% | IC50 [2]: 15.5 µM | IC50 [32]: > 20 µM

O=c1c(O)c(-c2ccc(O)c(O)c2)oc2cc(O)cc(O)c12 [QUERCETIN]
IC50 [1]: 8.41 µM | IC50 [2]: 7.26 µM

CCCCOc1cc2oc(-c3ccccc3)cc(=O)c2c(O)c1O
IC50 [3]: > 20 µM | IC50 [4]: > 20 µM | IC50 [1]: 12.9 µM | IC50 (HepG2): > 20 µM | IC50 (SW480 [5]): > 20 µM | IC50 (HT-29 [6]): 19.5 µM | IC50 [2]: 14 µM

O=c1[nH]cc(F)c(=O)[nH]1 [FLUOROURACIL]
IC50 (HepG2): 40.2 µM | IC50 (SW480 [5]): 32.7 µM | IC50 (HT-29 [6]): > 100 µM
